Experiments:
[1] = target: T1, interaction of Imp7 with ERK (Homo sapiens, UniProt O95373); assay: Coimmunoprecipitation of Imp7 with ERK; assay type: cell-based; conditions: HeLa cells; 10 μM, 2 hours; TPA
T1 construct: endogenous in cells; host or cells: HeLa
Description: (§1) (A) EPE peptide prevents ERK1/2-importin7 interaction. HeLa cells were serum starved (0.1%, 16 hours), pretreated with EPE peptide, scrambled peptide (10 μM, 2 hours) or DMSO, and then stimulated with TPA (250 nM, 15 min). ERK1 were precipitated with αgERK1 Ab; importin7 co-immunoprecipitated with ERK1 was detected by WB with αimportin7 Ab. […] T47D, HeLa, MDA-MB-231 and A2352 cells were serum starved (0.1%, 16 hours), pretreated with EPE peptide, scrambled peptide (10 μM, 2 hours) or DMSO control, and then stimulated with TPA (250 nM, indicated times). Cell extracts were subjected to Western blot analysis with the indicated Abs. (C) EPE peptide inhibits phosphorylation of c-Myc and Elk1 in B-Raf melanomas. A2158 and A2352 cells were treated with scrambled and EPE peptide for two hours and then stimulated with the indicated concentration of TPA for 30 min. […] (D) Quantification of some of the results in B and C. […]
(§2) (i) Preparation of cellular extracts for Western Blotting: Cells were rinsed twice with ice-cold PBS and scraped into Radio-immunoprecipitation assay buffer (RIPA; 137 mM NaCl, 20 mM Tris (pH 7.4), 10% glycerol, 1% Triton X-100, 0.5% deoxycholate, 0.1% SDS, 2 mM EDTA, 1 mM PMSF, and 20 μM leupeptin). The extracts were centrifuged (20,000×g, 15 min, 4° C.), and the supernatants were further analyzed by Western blotting. […]

RSK = assay: Western blotting of RSK phosphorylation; assay type: cell-based; conditions: four distinct cell lines
Description: as §1, §2

[2] = tested on: breast, prostate and cervical cancer-derived cells; assay: Proliferation assay (Methylene Blue); assay type: cell-based; conditions: 72 h after peptide administration, 10 μM
Description: (§3) FIGS. 3A-3B illustrate that EPE peptide prevents proliferation of cancer but not normal cells. (A) Effect of the EPE peptide on the proliferation of various cell lines. Sixteen cancer and four “normal” immortalized cell lines were treated with either EPE or scrambled peptides as described above. Viable cells were assayed by Methylene Blue at 48 or 72 hours after cell seeding. The data from at least three independent experiments is presented as percent of the amount of viable cells/initial cell number, where initial cell number was considered as 100. (B) Comparison of the effects of the EPE-peptide and Raf inhibitor PLX4032 on cell viability. NHEM-Ad, LOXIMVI, A2352, Hela MDA-MB-231, and DU-145 cells were treated with EPE peptide, scrambled peptide, (10 μM), PLX4032 (1 μM), DMSO control, or no treatment at 1% FCS. The number of cells was detected as above. The graphs present the kinetic of cell growth at the indicated times. All experiments were repeated 3 times in triplicates.
(§4) All cells, except of MCF-10A, were seeded into 12-well cell plates in 1% FBS medium. MCF-10A cells were seeded in their complete medium diluted 5 fold. DMSO, Scr peptide, EPE peptide, or U0126 (final concentration of 10 μM each) were added to the appropriated wells four hours later. Every day medium was changed to fresh one containing the same agents. The number of viable cells was measured by Methylene Blue assay at 72 h after cell seeding. Shortly, cells were fixed with 4% Formaldehyde for 2 h at 23° C., washed once with 0.1M Borate Buffer pH 8.5 and stained with of 1% Methylene Blue in 0.1M Borate Buffer for 10 min. Color was extracted by adding 0.1 M HCl for 3 h at 23° C., and examined at 595 nm. For time course experiments, viable cells were measured at 0, 24, 48, 72 and 96 h after cell seeding. For dose response experiments we treaded the cells with 0.1, 1, 3, 10, or 30 μM of peptides for 72 h, as described above.

[3] = tested on: immortalized, non-transformed cells; assay: Proliferation assay (Methylene Blue); assay type: cell-based; conditions: 72 h after peptide administration, 10 μM
Description: as §3, §4

[4] = tested on: melanoma cells with oncogenic B-Raf (B-Raf melanoma); assay: Proliferation assay (Methylene Blue); assay type: cell-based; conditions: 72 h after peptide administration, 10 μM
Description: as §3, §4

[5] = tested on: other melanomas, prostate and lung cancer-derived cells; assay: Proliferation assay (Methylene Blue); assay type: cell-based; conditions: 72 h after peptide administration, 10 μM
Description: as §3, §4

[6] = tested on: PLX-4032 and U0126 resistant A2352 melanoma cells; assay: Proliferation of inhibitor-resistant melanoma cells; assay type: cell-based; conditions: 10 μM, 72 h
Description: (A) A2352 melanoma cells resistant to either PLX4032 (B-Raf) or U0126 (MEK) inhibitors were treated with DMSO, EPE or Scr peptide (10 μM), U0126 (10 μM), PLX4032 (1 μM), Wortmannin (0.5 μM) or Taxol (25 μg/ml). Presented as percent of viable cells at 72 h/initial cell number. […] Methylene blue assay was performed to quantify viable cells. Experiments were done twice in triplicate. Data presented as fold change.
A2352 cells were supplemented with either PLX4032 (B-Raf inhibitor, 1 μM), or U0126 (MEK inhibitor, 10 μM) for 45 days. […]

ERK = assay: Immunohistochemistry of ERK localization in xenograft tumors; assay type: in vivo, mice; conditions: MDA-MB-231 and LOXIMVI xenografts, anti ERK Ab
Source text: FIGS. 10A-10B illustrate that the EPE peptide causes cytoplasmatic localization of ERK in xenografts. FIG. 10A: Photographs illustrating that EPE and Scr peptide as well as DMSO-treated MDA-MB-231 and LOXIMVI xenografts were immunostained with αgERK Ab. FIG. 10B presents bar-graphs representing number of cells with cytoplasmatic/nuclear ERK staining calculated in 10 random microscopic fields.

[7] = mouse, in vivo
Description: (§5) Female SCID mice (Harlan), 5-6 weeks of age, were inoculated s.c. into the flank region with 10^7 A2352 cells in 150 μl mixture of PBS with matrigel (2:1). Tumors were allowed to develop to the size of 5-6.5 mm in diameter (50˜110 mm^3 volume) and then the animals were randomly allocated to different treatment groups. The peptides (100 mM stock in DMSO), were diluted to the necessary concentration in PBS and boiled for 5 minutes. Then, DMSO, Scr or EPE peptides were administered by i.v. injection into the tail vein (150 μl/mouse, 3 times a week). Tumor dimensions were measured with a digital sliding caliper. Tumor volume was calculated using the formula: V=D1×D2×D3×π/6, where D1, D2, D3—represent the three mutually orthogonal growth diameters. To assess any signs of systemic toxicity, body weight was monitored, and recorded at the end of the experiment.
(§6) Tumor xenografts, lungs, livers, kidneys and hearts of animals from different treatment groups were removed and subjected for histological analysis by staining of 5 μm paraffin embedded tissue slides with H&E, and examination by light microscope. […] Briefly, paraffin embedded blocks of tumors after different treatments were cut at 4 μm thickness and stained with ERK Abs, followed by second antibodies conjugated to peroxidase and DAB staining. Representative fields of each specimen were photographed at ×20 and ×40 magnifications.

[8] = Systemic toxicity in xenograft-bearing mice (body weight, organ histology); conditions: treated animals, end of experiment
Description: as §5, §6

T1 sequence (O95373 whole entry): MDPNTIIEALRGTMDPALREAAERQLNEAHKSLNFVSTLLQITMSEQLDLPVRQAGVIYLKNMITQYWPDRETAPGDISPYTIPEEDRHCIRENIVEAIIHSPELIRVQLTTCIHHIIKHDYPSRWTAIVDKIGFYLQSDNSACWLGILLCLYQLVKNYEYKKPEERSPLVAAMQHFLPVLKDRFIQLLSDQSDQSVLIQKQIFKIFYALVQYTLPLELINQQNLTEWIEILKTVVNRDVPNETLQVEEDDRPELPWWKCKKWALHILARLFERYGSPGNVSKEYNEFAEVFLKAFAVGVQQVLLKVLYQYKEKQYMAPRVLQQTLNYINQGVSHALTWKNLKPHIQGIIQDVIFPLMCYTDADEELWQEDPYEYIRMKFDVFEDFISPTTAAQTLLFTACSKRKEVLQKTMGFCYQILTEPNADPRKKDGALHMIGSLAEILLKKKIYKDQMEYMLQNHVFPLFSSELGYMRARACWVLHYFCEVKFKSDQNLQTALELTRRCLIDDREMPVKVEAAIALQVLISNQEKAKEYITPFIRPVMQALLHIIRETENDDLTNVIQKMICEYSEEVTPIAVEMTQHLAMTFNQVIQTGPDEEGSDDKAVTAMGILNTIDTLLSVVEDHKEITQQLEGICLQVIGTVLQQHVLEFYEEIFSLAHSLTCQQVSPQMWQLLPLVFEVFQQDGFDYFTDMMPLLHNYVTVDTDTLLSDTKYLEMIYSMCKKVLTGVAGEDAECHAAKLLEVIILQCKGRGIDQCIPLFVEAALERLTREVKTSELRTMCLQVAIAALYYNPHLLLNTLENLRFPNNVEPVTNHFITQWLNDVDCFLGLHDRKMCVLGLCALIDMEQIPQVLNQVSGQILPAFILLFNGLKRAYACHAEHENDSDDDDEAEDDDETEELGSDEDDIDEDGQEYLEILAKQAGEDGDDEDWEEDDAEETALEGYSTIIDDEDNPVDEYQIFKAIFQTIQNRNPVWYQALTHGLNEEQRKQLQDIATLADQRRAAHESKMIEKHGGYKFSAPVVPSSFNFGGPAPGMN

Question: Which results are given for “GQLNHILGILGEPEQED (Synthetic peptide (EPE)) [EPE peptide]”?
Answer: interaction of Imp7 with ERK [1]: prevented the interaction of Imp7 with ERK; downstream activity of RSK (RSK): no effect; proliferation (cell number) [2]: prevented cell growth, but did not reduce the number of initial cells; proliferation (cell number) [3]: did not respond to the peptide at all; proliferation (cell number) [4]: profound reduction in cell number; proliferation (cell number) [5]: small decrease in cell growth; cell growth [6]: able to reduce cell growth; ERK localization in xenograft tumor sections (ERK): localized almost exclusively in the cytoplasm; size or structure of the kidneys, livers and hearts [7]: did not affect; structure of the lungs [7]: not affected; change in weight, organ morphology or other toxicity-related effects [8]: None of the animal treated exhibited any significant change

Reference: patent US10240133B2, “ERK-derived peptides and uses thereof” (Yeda Research and Development Co. Ltd., priority 2013, dated 2019)
